Laboratory results as given in patent publication US10138273B2, “Peptide ligands for hepatic stellate cells” (The Curators of the University of Missouri, priority 2015, dated 2018).
Like-named read-outs stand apart in the source and are kept apart here. Ends that are not written are not given here.

Assays:
LX 2 cells [1] = assay: Cell viability (MTT) / apoptotic effect in LX 2 cells; type: cell-based, human
Protocol: (§1) LX 2 and HSC T6 (1×10^4 cells per well) cells were cultured in 96 well plates for 12 h in DMEM medium containing 10% FBS. The peptide 431/KLA fusion peptide, the mixture of peptide 431 and KLA peptide, and KIA peptide were incubated with the cells for 48 h. Cell viability was measured using MTT (3 (4,5 dimethylthiazol2 yi) 2,5 diphenyltetrazolium bromide) assay.
(§2) The proapoptotic peptide having the sequence of SEQ ID NO: 13, KLAKLAKKLAKLAK (KLA), is able to trigger mitochondrial disruption and induce cell death. However, the KLA peptide itself cannot enter cells to exert its proapoptotic activity. We therefore prepared a KLA/peptide 431 fusion peptide and examined its proapoptotic activity in LX 2 and HSC T6 cells.

LX-2 cells = assay: Cellular uptake of siRNA nanocomplexes in LX-2 cells; type: cell-based, human; conditions: siRNA nanocomplex modified with Peptide-431 (SNPP) versus free siRNA, SNCP, SNVP, 50 nM siRNA
Protocol: (§3) The siRNA was labeled with Alexa Flour-647, and the nanocomplexes were prepared using neutravidin as we reported before. Approximately 100,000 cells (HSC-T6, LX-2)/well were seed into 24 well plate and incubator at 37 C for 12 hrs, free siRNA and nanocomplexes (SNCP, SNVP, SNPP) were then incubated with the cells at a final siRNA concentration of 50 nM. The fluorescence intensity of the cells at different intervals was detected by FACSCalibur Flow Cytometry (BD Biosciences, Franklin Lakes, N.J.). FIG. 17A depicts an evaluation of the cellular uptake of free siRNA and the nanocomplexes in HSC-T6 cells, and FIG. 17B depicts an evaluation of the cellular uptake of free siRNA and the nanocomplexes in LX-2 cells.

HSC-T6 cells = assay: Cellular uptake of siRNA nanocomplexes in HSC-T6 cells; type: cell-based, rat; conditions: siRNA nanocomplex modified with Peptide-431 (SNPP) versus free siRNA, SNCP, SNVP, 50 nM siRNA
Protocol: as §3

HSCs = assay: Biodistribution of siRNA nanocomplexes in rats and rats with liver fibrosis; type: in vivo, rat; conditions: siRNA modified with Peptide-431 versus other delivery systems; tail vein, 0.065 mg/kg siRNA, 2 hrs
Protocol: The siRNA was labeled with Alexa Flour-647, and the nanocomplexes were prepared using neutravidin as we reported before. The free siRNA and nanocomplexes (SNCP, SNVP, SNPP) were injected into rats by tail vein at an siRNA dose of 0.065 mg/kg. After 2 hrs, the rats were sacrificed and the major organs including the liver, heart, lung, spleen, muscle, kidney, and blood were harvested for fluorescence imaging using a Xenogen IVIS imaging system.
The siRNA was labeled with Alexa Flour-647, and the nanocomplexes were prepared using neutravidin as we reported before. Liver fibrosis was inducted by injection of CCl4. The free siRNA and nanocomplexes (SNCP, SNVP, SNPP) were injected into rats with liver fibrosis by tail vein at an siRNA dose of 0.065 mg/kg. After 2 hrs, the rats were sacrificed and the major organs including the liver, heart, lung, spleen, muscle, kidney, and blood were harvested for fluorescence imaging using a small animal imaging system (Brunker MS FX Pro). FIG. 19 depicts images evaluating the biodistribution of free siRNA and the nanocomplexes in Rats with liver fibrosis.

HSC T6 cells [2] = assay: Apparent equilibrium dissociation constant (Kd) on HSC T6 cells; type: binding, rat; conditions: 5 FAM labeled peptide, 1 h at 37° C., flow cytometry
Protocol: (§4) We next measured the apparent equilibrium dissociation constants (Kd) of the peptides (422, 425, 431, and 515) to LX 2 and HSC T6 cells as shown in FIG. 10A and FIG. 10B, respectively. The cells were incubated with 5 FAM labeled peptides at different concentrations for 1 h at 37° C. The labeled cells were detected by flow cytometry, and the apparent Kd value was calculated using GraphPad Prism. […] The result is consistent with the cellular uptake result depicted in FIGS. 7A-7B, 8A-8G, and 9A-9G.

[3] = test system: rat hepatic stellate cells HSC T6; assay: Cellular uptake of 5 FAM labeled peptides in HSC T6 cells (flow cytometry); type: cell-based; conditions: 1 h incubation; for binding affinity compared to the control peptide and other selected peptides: HSC T6 cells
Protocol: (§5) We examined cellular uptake of 5 FAM labeled peptides (425, 431, and 515) in human hepatic stellate cells LX 2 upon treatment with nonenzymatic cell dissociation solution and trypsin. […] We also evaluated the effect of incubation time on cellular uptake of the peptides. 5 FAM labeled peptide 431 was incubated with LX 2 cells for different incubation time points. […] Therefore, nonenzymatic cell dissociation solution and 1 h incubation time were selected to evaluate all the peptides (420, 422, 425, 431, 504, and 515) in human hepatic stellate cells LX 2 and rat hepatic stellate cells HSC T6.

IGF2R [4] = biological target: T1, IGF2R (Homo sapiens, UniProt P11717); assay: Phage ELISA on recombinant human IGF2R protein; type: binding; design: conducted using recombinant human IGF2R extracellular domain protein (the first, third, and fifth rounds); conditions: compared to peptide insertless control phage and other selected clones
Protocol: The binding affinity of the twenty-eight phages was evaluated by ELISA on recombinant human IGF2R protein. […] Additionally, the particular embodiment may include more specific aspects related to the materials and techniques employed by this method, which are described with more detail in the Experiment section below.
Twenty eight phage clones were randomly selected after the fourth and fifth rounds of biopanning and cultured in 1 mL of ER2738 bacteria (growing in early stage) at 37° C. for 4.5 h. Phage DNA was extracted, purified using the DNA clean system (Promega, Madison, Wis.), and then sequenced with an ABI Genetic Analyzer 3100 (Applied Biosystems, USA). The primer used for sequencing is SEQ ID NO: 14, 5′-CCCTCATAGTTAGCGTA ACG-3′. […] One of the phages was peptide insertless. In FIG. 3B, binding affinity of the selected phage clones encoding inserted peptides was evaluated by ELISA on recombinant human IGF2R protein.

IGF2R [5] = biological target: T1, IGF2R; assay: Specificity of peptide 431 to IGF2R: uptake in IGF2R-silenced LX 2 cells; type: cell-based; design: the expression of IGF2R in LX 2 cells was silenced using siRNA; endogenous in cells; host or cells: LX-2 human hepatic stellate cells; conditions: for cellular uptake after silencing IGF2R with siRNA: LX 2, IGF2R siRNA versus scrambled siRNA
Protocol: In addition to affinity, we also evaluated the specificity of peptide 431 to IGF2R in LX 2 cells. For this purpose, the expression of IGF2R in LX 2 cells was silenced using siRNA As shown in FIGS. 11A-11B, the IGF2R siRNA (10 and 50 nM) dramatically knocked down the expression of IGF2R in LX 2 cells at the mRNA and protein levels.

LX 2 cells [6] = assay: Serum protein binding study: uptake in LX 2 cells in media containing FBS; type: cell-based, human; conditions: LX 2, OptiMEM and DMEM with FBS up to 10%
Source text: It is important to evaluate the stability of peptides in the presence of serum proteins, which may nonspecifically bind to IGF2R specific peptides. As a result, we evaluated the cellular uptake of 5 FAM labeled peptide 431 in LX 2 cells in the serum reduced medium OptiMEM and DMEM media containing different concentrations of FBS.

[7] = test system: human hepatic stellate cells LX 2; assay: Cellular uptake of 5 FAM labeled peptides in LX 2 cells (flow cytometry); type: cell-based; conditions: for binding affinity compared to the control peptide and other selected peptides: LX 2 cells
Protocol: as §5

HSC T6 cells [8] = assay: Cell viability (MTT) / apoptotic effect in HSC T6 cells; type: cell-based, rat; conditions: HSC-T6, fused to peptide-431
Protocol: as §1, §2

LX 2 cells [9] = assay: Apparent equilibrium dissociation constant (Kd) on LX 2 cells; type: binding, human
Protocol: as §4
In order to improve the binding affinity of peptide 431, […] may have the molecular structure depicted in FIG. 16A. Affinity of the dimeric peptide 431 was evaluated in LX 2 cells as described above.

For “KLAKLAKKLAKLAK (proapoptotic peptide) [KLA peptide, reference compound]”, the “apoptotic activity / cell death” value (LX 2 cells [1]; LX 2, 48 h, MTT) was “did not exhibit apoptotic activity”.

For “VHWDFRQWWQPS [Peptide-431, IGF2R-specific peptide ligand encoded by phage 431]”, the “cellular uptake of siRNA” value (LX-2 cells) was “highest cellular uptake of siRNA”, the “cellular uptake of siRNA” value (HSC-T6 cells) was “highest cellular uptake of siRNA” and the “specificity for HSCs (biodistribution)” value (HSCs) was “highest specificity for HSCs”. For the same substance, the Kd (HSC T6 cells [2]) was 12.3 µM, the cellular uptake ([3]; 5 FAM labeled peptide, nonenzymatic cell dissociation solution, HSC T6) was 12% and the “binding affinity compared to the control peptide and other selected peptides” value [3] was “highest binding affinity”. The “binding affinity compared to the control peptide and other selected peptides” value ([3]; listed as Phage No. 431) was “greatest binding affinity”, the “binding affinity to recombinant human IGF2R protein (phage ELISA)” value (IGF2R [4]) was “highest binding affinity” and the “binding affinity to recombinant human IGF2R protein (phage ELISA)” value (IGF2R [4]; listed as peptide-431) was “highest binding affinity and specificity”. The “cellular uptake after silencing IGF2R with siRNA” value (IGF2R [5]; listed as peptide 431) was “lower uptake”, the “cellular uptake after silencing IGF2R with siRNA” value (IGF2R [5]; listed as peptide-431) was “significantly reduced” and the “specificity to IGF2R on LX 2 cells” value (IGF2R [5]; concluded from IGF2R silencing) was “high specificity”. For the same substance, the “cellular uptake in presence of FBS” value (LX 2 cells [6]) was “not significantly affected”, the cellular uptake ([7]; 5 FAM labeled peptide, nonenzymatic cell dissociation solution, 1 h incubation, LX 2) was 62% and the “effect of incubation time on cellular uptake” value ([7]; LX 2, different incubation time points) was “time dependent increase”. The “binding affinity compared to the control peptide and other selected peptides” value ([7]; 1 h incubation) was “highest binding affinity”, the “binding affinity compared to the control peptide and other selected peptides” value ([7]; 1 h incubation, listed as Phage No. 431) was “greatest binding affinity” and the “effect of cell detachment method on cellular uptake” value ([7]; nonenzymatic cell dissociation solution versus trypsin, LX 2) was “higher cellular uptake in nonenzymatic cell dissociation solution”. The “uptake of proapoptotic KLA peptide” value (LX 2 cells [1]; LX-2, fused to peptide-431) was “enhances the uptake” and the “uptake of proapoptotic KLA peptide” value (HSC T6 cells [8]) was “enhances the uptake”.

In the case of “dimeric peptide 431: dimer of Peptide-431 linked via a lysine, imaging agent coupled to the linker (FIG. 16A) (VHWDFRQWWQPS; also: dimer of two peptide chains linked via a lysine, imaging agent coupled to the linker)”, the “improvement of binding affinity (Kd) of dimer compared to monomeric peptide 431” value (LX 2 cells [9]) is reported as “approximately 9 fold” and the “improvement of binding affinity (Kd) of dimer compared to monomeric peptide 431” value (LX 2 cells [9]; listed as Dimerization of peptide-431) is reported as “approximately 9 fold”.
